Laboratory results taken from patent publication US20250295639A1, “METHODS FOR TREATING HEART DISEASES” (Cytokinetics, Incorporated, priority 2024, published 2025).

Assays:
[1] = tested on: patients with symptomatic obstructive HCM (oHCM); test: Phase 2 dose finding clinical trial of aficamten in symptomatic oHCM (10 weeks, Cohort 1 and Cohort 2); type: in vivo, human
From the text: Overall, the incidence of adverse events was similar between treatment arms. […] No new cases of atrial fibrillation were reported by the investigators. In this dose-range finding trial, one patient experienced a transient decrease in left ventricular ejection fraction (LVEF) that required dose adjustment but not dose interruption. […] A multi-center, randomized, placebo-controlled, double-blind, dose finding phase 2 clinical trial of aficamten in patients with symptomatic obstructive HCM (oHCM) was conducted and described as Example 2 in WO 2024/031016 and in U.S. Patent Publication US-2024-0115554-A1, the disclosures of which are incorporated by reference herein.

[2] = tested on: patients with symptomatic oHCM; test: SEQUOIA-HCM: cardiac biomarkers NT-proBNP and hs-cTnI; type: in vivo, human
From the text: A further exploratory objective of this trial was to evaluate the effect of aficamten on biomarker levels, as determined by changes from baseline values in NT-pro-BNP, hs-cardiac-TnI and other biomarkers through Week 24. Cardiac biomarkers. Aficamten treatment led to an immediate and significant reduction in both NT-proBNP and hs-cTnI, with substantial lowering of both biomarkers by week 2. […] Biomarker lowering persisted to week 24 when the relative reduction from baseline was-80% (95% CI-83%, −77%, p<0.001) in NT-proBNP and −43% (−49%, […], p<0.001) in hs-cTnI. […] Serum levels of NT-proBNP decreased from baseline to week 24 from 735 (604, 894) ng/L to 143 (120, 171) ng/L in patients receiving aficamten and remained unchanged from 710 (587, 859) ng/L to 717 (596, 863) ng/L in those receiving placebo, while hs-troponin decreased from 17.1 (14.1, 20.8) ng/L to 9.5 (8.0, 11.3) ng/L with aficamten and remained unchanged from 16.6 (13.3, 20.7) to 16.5 (13.7, 19.9) ng/L in placebo (P<0.001 for both comparisons compared to placebo). […] In contrast hs-cTnI reduction reflected 3% (−18%, 30%) of aficamten's effect on pVO2.

## CCc1nc(-c2ccc3c(c2)CC[C@H]3NC(=O)c2cnn(C)c2)no1 [aficamten, (R)—N-(5-(5-ethyl-1,2,4-oxadiazol-3-yl)-2,3-dihydro-1H-inden-1-yl)-1-methyl-1H-pyrazole-4-carboxamide]
[1]; 10 weeks treatment
  tolerability: well tolerated
[1]; Cohort 1, Week 10
  patients achieving target goal of treatment (resting gradient <30 mmHg and post-Valsalva gradient <50 mmHg): 78.6%
[1]; Cohort 2, Week 10
  patients achieving target goal of treatment (resting gradient <30 mmHg and post-Valsalva gradient <50 mmHg): 92.9%
[1]; both cohorts
  LVEF after the end of treatment (reversibility): returned towards baseline within two weeks
[1]; human, in vivo
  dose dependence of observed reductions in LVOT-G: dose dependent
  new cases of atrial fibrillation: No new cases
  serious adverse events attributed to aficamten: No serious adverse events
  time of onset of reductions in LVOT-G after initiating treatment: within two weeks
[2]; Week 24
  hs-cTnI relative reduction from baseline: −43%
[2]; aficamten group, week 24
  patients with 50% relative reduction in hs-troponin: 31%
  patients with ≥50% reduction in NT-proBNP relative to baseline: 84%
[2]; aficamten, week 24, baseline 17.1 (14.1, 20.8)
  hs-troponin level: 9.5 (8.0, 11.3) ng/L
[2]; aficamten, week 24, baseline 735 (604, 894)
  serum level of NT-proBNP: 143 (120, 171) ng/L
[2]; after the treatment period
  NT-proBNP and hs-cTnI concentrations after cessation of aficamten: returning to baseline values
[2]; week 8
  NT-proBNP reduction: 79%
  hs-cTnI reduction: 41%
